Laboratory results as given in US20220175818A1, “Inhibition of Monoamine Oxidase Subtype A (MAOA) Mitigates Cardiovascular Calcification” (The Brigham and Women's Hospital, Inc., priority 2019, published 2022).

Tested on: VICs
Assay: Alizarin red calcification assay of VICs grown in osteogenic media with MAOA inhibitors
Type: cell-based, human
Conditions: VICs grown in OM, 21 days, inhibitor 10 μM, PBS control, n=3, FIG. 7E
Protocol: Representative images, n=3 donors.
Osteogenic, chondrogenic, and adipogenic differentiation assays were conducted for samples of protein, RNA, and media collected at 0, 1, 2, and 3 weeks after changing media from growth media to specialized media. Alizarin Red. alizarin red (AR) 2% (Thermo Fisher Scientific), Alcian blue (AB) 1%, and oil red O (ORO) (Abcam) were used for osteogenic, chondrogenic, and adipogenic assays respectively. Cells plated in 48 or 96 well plates were washed with PBS and fixed for 15 minutes at room temperature with 10% formalin for AR and AB and 4% PFA for ORO. After washing with Milli-Q water, stains were added. […] The incubation times were 20 minutes (AR), 1 hour (AB), and 15 minutes in room temperature (ORO). Washes with Milli-Q water followed for the AR (3×) and AB (4×) stains. […] Pictures were taken using an iPhone7 (Apple) and the amount of dye released was quantified by spectrophotometry at 550 nm.

SMILES: Cc1ccc2c(c1)c1c3n2CCNC3CCC1 (centres unmarked) [pirindole]
- calcification (Alizarin red staining): reduction of calcification

SMILES: O=C(NCCN1CCOCC1)c1ccc(Cl)cc1 [moclobemide, Moclobemide]
- calcification (Alizarin red staining): reduction of calcification
